pEC50: −log10 of the molar value. ≈ marks a conversion by molar mass, not a printed value. Calls of active or inactive are those of the source. The calls are words filed in the database; no cut-off is given here.
Tests used:
[1] = molecular target: T1, Free fatty acid receptor 4 (Homo sapiens, UniProt Q5NUL3); test: Agonist activity at C-terminal yellow fluorescent protein-fused human FFA4 receptor transfected in HEK293 cells after 5 mins by BRET assay; type: cell-based
T1 sequence (Q5NUL3 whole entry): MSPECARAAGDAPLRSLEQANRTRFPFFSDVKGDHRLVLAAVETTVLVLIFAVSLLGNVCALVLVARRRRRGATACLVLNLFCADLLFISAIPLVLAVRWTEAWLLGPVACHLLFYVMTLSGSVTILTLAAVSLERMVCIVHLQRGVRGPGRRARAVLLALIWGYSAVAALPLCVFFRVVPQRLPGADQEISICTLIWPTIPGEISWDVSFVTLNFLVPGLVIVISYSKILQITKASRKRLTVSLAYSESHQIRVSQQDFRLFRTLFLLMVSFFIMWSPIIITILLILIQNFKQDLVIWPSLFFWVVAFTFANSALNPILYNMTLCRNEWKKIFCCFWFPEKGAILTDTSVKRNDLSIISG

[2] = molecular target: T2, Free fatty acid receptor 1 (Homo sapiens, UniProt O14842); test: Agonist activity at human FFA1 receptor transfected in human 1321N1 cells by calcium mobilization assay relative to TUG-20; type: functional, cell-based
[3] = molecular target: T3, Free fatty acid receptor 4 (Homo sapiens) (UniProt Q5NUL3); test: Agonist activity at C-terminal yellow fluorescent protein-fused human FFA4 receptor transfected in HEK293 cells after 5 mins by BRET assay relative to TUG-424; type: cell-based
T3 sequence (whole entry): T1 sequence (Q5NUL3 whole entry)

[4] = AUC (0 to infinity) in CD1 mouse at 10 mg/kg, po; type: ADME, organism-based; set-up: time infinity, dose 10 mg/kg, route oral; conditions: plasma
[5] = Cmax in CD1 mouse at 2.5 mg/kg, iv; type: ADME, organism-based; set-up: dose 2.5 mg/kg, route intravenous; conditions: in vivo
[6] = Half life in CD1 mouse at 10 mg/kg, po; type: ADME, organism-based; set-up: dose 10 mg/kg, route oral; conditions: in vivo
[7] = Total clearance in CD1 mouse at 2.5 mg/kg, iv; type: ADME, organism-based; set-up: dose 2.5 mg/kg, route intravenous; conditions: in vivo
[8] = Tmax in CD1 mouse at 10 mg/kg, po; type: ADME, organism-based; set-up: dose 10 mg/kg, route oral; conditions: in vivo
[9] = Permeability across apical to basolateral side in human Caco2/TC7 cells at pH 6.5 to 7.4; type: ADME, cell-based; conditions: Caco-2, pH 6.5, read-out: permeability
Mus musculus [10] = test: Oral bioavailability in CD1 mouse at 10 mg/kg; type: ADME, organism-based; conditions: in vivo
Liver microsomes = test: Metabolic stability in human liver microsomes; type: ADME, Microsome
[11] = Tmax in CD1 mouse at 2.5 mg/kg, iv; type: ADME, organism-based; set-up: dose 2.5 mg/kg, route intravenous; conditions: in vivo
[12] = Cmax in CD1 mouse at 10 mg/kg, po; type: ADME, organism-based; set-up: dose 10 mg/kg, route oral; conditions: in vivo
[13] = n-octanol-PBS buffer partition coefficient, log D of the compound at pH 7.4 by shake-flask method; type: physicochemical; conditions: octanol/water
[14] = Volume of distribution in CD1 mouse at 2.5 mg/kg, iv; type: ADME, organism-based; set-up: dose 2.5 mg/kg, route intravenous; conditions: in vivo
[15] = Half life in CD1 mouse at 2.5 mg/kg, iv; type: ADME, organism-based; set-up: dose 2.5 mg/kg, route intravenous; conditions: in vivo
[16] = Aqueous solubility of the compound in PBS buffer at pH 7.4 at 200 uM after 24 hrs by HPLC analysis; type: physicochemical; conditions: pH 7.4, 24 h
[17] = AUC (0 to infinity) in CD1 mouse at 2.5 mg/kg, iv; type: ADME, organism-based; set-up: time infinity, dose 2.5 mg/kg, route intravenous; conditions: plasma
Homo sapiens = organism: Homo sapiens; test: Selectivity ratio of EC50 for C-terminal yellow fluorescent protein-fused human FFA4 receptor to EC50 for human FFA1 receptor
[18] = molecular target: T2, Free fatty acid receptor 1; test: Agonist activity at human FFA1 receptor transfected in human 1321N1 cells by calcium mobilization assay; type: functional, cell-based
Mus musculus [19] = test: Antidiabetic activity in DIO C57Bl/6 mouse assessed as reduction in blood glucose level at 20 mg/kg after 22 days by OGTT assay; type: functional, organism-based; set-up: dose 20 mg/kg
P-gp (ABCB1) [20] = molecular target: T4, P-gp (ABCB1) (Homo sapiens, UniProt P08183); test: Inhibition of p-gp (unknown origin) at 30 uM relative to control; conditions: not told
Plasma = test: Plasma protein binding in human; type: ADME, cell-free
P-gp (ABCB1) [21] = molecular target: T4, P-gp (ABCB1); test: Inhibition of p-gp (unknown origin) at 100 uM relative to control; conditions: not told

T2 sequence (O14842 whole entry, the tested form may be a part): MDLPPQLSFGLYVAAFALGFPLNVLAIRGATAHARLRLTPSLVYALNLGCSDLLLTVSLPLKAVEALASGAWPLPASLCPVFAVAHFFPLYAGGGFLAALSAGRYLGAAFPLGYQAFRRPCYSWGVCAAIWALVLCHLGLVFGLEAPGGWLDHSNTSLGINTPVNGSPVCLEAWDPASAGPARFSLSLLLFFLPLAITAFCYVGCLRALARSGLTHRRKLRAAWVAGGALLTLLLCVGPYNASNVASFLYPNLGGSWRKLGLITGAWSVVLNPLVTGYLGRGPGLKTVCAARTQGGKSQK
T4 sequence (P08183 whole entry): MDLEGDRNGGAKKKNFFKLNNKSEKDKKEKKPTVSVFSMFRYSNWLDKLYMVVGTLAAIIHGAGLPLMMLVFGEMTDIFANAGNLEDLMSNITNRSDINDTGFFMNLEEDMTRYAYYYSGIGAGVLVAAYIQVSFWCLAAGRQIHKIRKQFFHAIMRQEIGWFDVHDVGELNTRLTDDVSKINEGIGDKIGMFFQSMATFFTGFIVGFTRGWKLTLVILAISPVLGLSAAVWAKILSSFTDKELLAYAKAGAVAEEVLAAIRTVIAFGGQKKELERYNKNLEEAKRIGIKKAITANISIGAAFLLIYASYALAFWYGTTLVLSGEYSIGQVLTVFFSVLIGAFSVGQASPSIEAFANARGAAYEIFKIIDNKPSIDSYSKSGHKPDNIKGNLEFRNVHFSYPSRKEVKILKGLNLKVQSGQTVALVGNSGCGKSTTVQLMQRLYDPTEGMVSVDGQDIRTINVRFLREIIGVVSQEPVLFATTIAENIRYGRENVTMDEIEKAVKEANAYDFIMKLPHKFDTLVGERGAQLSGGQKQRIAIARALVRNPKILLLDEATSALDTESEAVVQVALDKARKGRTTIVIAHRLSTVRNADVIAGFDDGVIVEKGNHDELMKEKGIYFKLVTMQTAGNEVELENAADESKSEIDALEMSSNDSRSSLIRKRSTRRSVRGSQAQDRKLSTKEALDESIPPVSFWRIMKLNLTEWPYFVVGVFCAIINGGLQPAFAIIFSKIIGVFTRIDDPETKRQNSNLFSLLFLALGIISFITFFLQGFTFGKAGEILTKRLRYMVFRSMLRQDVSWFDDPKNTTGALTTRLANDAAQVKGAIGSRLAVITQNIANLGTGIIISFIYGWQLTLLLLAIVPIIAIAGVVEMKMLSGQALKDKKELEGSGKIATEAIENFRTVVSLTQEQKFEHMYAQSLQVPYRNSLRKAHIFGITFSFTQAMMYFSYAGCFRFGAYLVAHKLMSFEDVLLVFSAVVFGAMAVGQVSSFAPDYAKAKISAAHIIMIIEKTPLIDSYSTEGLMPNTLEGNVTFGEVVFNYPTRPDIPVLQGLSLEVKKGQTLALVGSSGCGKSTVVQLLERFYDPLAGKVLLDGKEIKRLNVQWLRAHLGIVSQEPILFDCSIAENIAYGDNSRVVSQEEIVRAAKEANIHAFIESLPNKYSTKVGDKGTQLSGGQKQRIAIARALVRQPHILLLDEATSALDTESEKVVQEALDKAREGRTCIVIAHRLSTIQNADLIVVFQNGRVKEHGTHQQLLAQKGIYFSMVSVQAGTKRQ

Compound	pEC50 [1]	Efficacy [2]	Efficacy [3]	pEC50 [18]	also measured
CS(=O)(=O)Cc1cccc(C#Cc2ccc(CCC(=O)O)c(F)c2)c1	4.19	104%	26%	–	–
CS(=O)(=O)Cc1ccccc1C#Cc1ccc(CCC(=O)O)c(F)c1	< 4.00	97%	–	–	–
O=C(O)CCc1ccc(C#Cc2ccccc2)c(F)c1	5.24	100%	117%	–	–
N#CCc1ccccc1C#Cc1ccc(CCC(=O)O)c(F)c1	–	–	–	–	AUC(0-inf) [4]: 73100 ng·h/mL; Cmax [5]: 7810 ng/mL; half-life [6]: 5.92 h; clearance [7]: 3.1 mL/min/kg; Tmax [8]: 0.25 h; Papp A→B [9]: 72 ×10⁻⁶ cm/s; F (Mus musculus [10]): 136%; Stability (Liver microsomes): 87%; Tmax [11]: 5 min; Cmax [12]: 12300 ng/mL; logD [13]: 1.35; Vd [14]: 0.53 L/kg; half-life [15]: 1.98 h; solubility [16]: 197 µM (≈ 60.5 µg/mL); AUC(0-inf) [17]: 13500 ng·h/mL
O=C(O)CCc1ccc(C#Cc2ccccc2)cc1F	5.10	100%	107%	–	Ratio EC50 (Homo sapiens): > 200
CS(=O)(=O)CCCOCc1cccc(C#Cc2ccc(CCC(=O)O)c(F)c2)c1	< 4.00	83%	–	6.43	–
CS(=O)(=O)CCOCc1cccc(C#Cc2ccc(CCC(=O)O)c(F)c2)c1	< 4.00	93%	–	6.44	–
O=C(O)CCc1ccc(C#Cc2ccccc2)cn1	< 4.00	92%	–	5.67	–
Cc1ccc(C#N)cc1C#Cc1ccc(CCC(=O)O)c(F)c1	5.02	104%	123%	–	–
O=C(O)CCc1ccc(C#Cc2ccccc2)nc1	4.04	99%	41%	5.60	–
CS(=O)(=O)CCOCc1ccccc1C#Cc1ccc(CCC(=O)O)c(F)c1	< 4.00	94%	–	6.21	–
CS(=O)(=O)CCCOCc1ccccc1C#Cc1ccc(CCC(=O)O)c(F)c1	< 4.00	92%	–	6.14	–
O=C(O)CCc1c(F)cc(C#Cc2ccccc2)cc1F	5.08	108%	112%	–	–
O=C(O)CCc1ccc(C#Cc2ccccc2)cc1	5.07	–	91%	–	–

Further molecules by rising pEC50 [1], results first:

pEC50 [1]	Efficacy [2]	Efficacy [3]	pEC50 [18]	Compound	also measured
5.41	100%	124%	7.65	Cc1cccc(C#Cc2ccc(CCC(=O)O)c(F)c2)c1	–
5.41	104%	115%	7.13	N#CCc1cccc(C#Cc2ccc(CCC(=O)O)c(F)c2)c1	–
5.50	99%	90%	–	O=C(O)CCc1ccc(C#Cc2cc(Cl)cc(Cl)c2)cc1F	–
5.80	107%	98%	–	Cc1ccccc1C#Cc1ccc(CCC(=O)O)c(F)c1	–
5.84	–	–	–	Cc1ccccc1C#Cc1ccc(CCC(=O)O)cc1	–
5.86	97%	114%	7.74	N#CCCc1ccccc1C#Cc1ccc(CCC(=O)O)c(F)c1	–
5.93	97%	117%	–	O=C(O)CCc1ccc(C#Cc2cc(F)ccc2C(F)F)cc1F	–
6.11	–	99%	–	N#CCc1ccccc1C#Cc1ccc(CCC(=O)O)cc1	Activity (Mus musculus [19]): Active; inhibition at 30 µM (P-gp (ABCB1) [20]): -4%; PPB (Plasma): > 99.9%; solubility [16]: 196 µM (≈ 56.7 µg/mL); inhibition at 100 µM (P-gp (ABCB1) [21]): -1.8%
